Values quoted from earlier work, collected in patent publication US20190117606A1, “COMPOSITIONS COMPRISING L-THEANINE, PROANTHOCYANIDIN/S AND A CATECHIN AND USES THEREOF” (priority 2016, published 2019).

Conditions: in vivo

Crossing of the blood-brain barrier: known to cross the blood-brain barrier | Time to peak concentrations after consumption: about one
SMILES: CCNC(=O)CC[C@H](N)C(=O)O [L-theanine, γ-glutamylethylamide]
